{
  "source": "patent US5877185A",
  "about": "“Synergistic compositions useful as anti-tumor agents” (priority 1995, dated 1999)",
  "key": {"[1]": {"system": "CCHC zinc fingers of pADPRT or p7 NC protein of retroviruses", "settings": "cited from earlier work"}, "cells": {"system": "cells", "settings": "Cole et al.; cited from earlier work"}, "[2]": {"system": "SIVmac239 or virus isolates in CEM ×174 cells", "settings": "Chuang et al., submitted (1994); cited from earlier work"}, "[3]": {"system": "SIVmac239 in CEM ×174 cells", "assay": "effect of IABP on SIVmac239 replication, p27 core antigen assay", "type": "cell-based, SIV", "method": "CEM ×174 cells (3×10^5 /ml) were infected with SIVmac239 on day 0 and incubated for 3 days (37° C., 5% CO2) before treatment with IABP (0-0.5 mM). The cultures were incubated for an additional 4 days before being replenished with fresh CEM ×174 cells (3×10^5/ml) and IABP. On day 10 the levels of free virus in the supernatants of the cultures were assessed using the SIV p27 core antigen assay (Coulter Corp). The absorbance was measured at 450 nm.\nThe effect of IABP on the infection cycle of SIV was determined. CEM ×174 cells (3×10^5 /ml) were infected with SIVmac239 on day 0 and incubated for 3 days ([…], 5% CO2) before treatment with IABP (0-0.5 mM). The cultures were incubated for an additional 4 days before being replenished with fresh CEM ×174 cells (3×10^5/ml) and IABP. On day 10 the levels of free virus in the supernatants of the cultures were assessed using the SIV p27 core antigen assay (Coulter Copr.) The absorbance was measured at 450 nm."}, "L 1210 cells": {"system": "L 1210 cells", "assay": "cytotoxic effect of IABP and INO2 BA, alone and combined, on L 1210 cell growth", "type": "cell-based, murine", "settings": "Mus musculus, L1210, 72 h, three days, read-out: decrease of L 1210 cell proliferation", "method": "64 μM INO2 BA decreased L 1210 cell proliferation by approximately 80% over a three day growth period."}, "HIV": {"system": "HIV", "settings": "Cole et al.; cited from earlier work"}},
  "note": "“Also recorded” adds a separate entry of the source.",
  "data": [
    {"smiles": "Nc1ccc2oc(=O)ccc2c1I", "note": "[IABP, 5-iodo-6-amino-1,2-benzopyrone]", "values": [
      {"measurement": "influence on CCHC zinc fingers", "setting": "[1]", "value": "no influence"},
      {"measurement": "toxicity of IABP", "setting": "cells", "value": "very low; also recorded: no toxic effect on cells; also recorded: non-toxicity"},
      {"measurement": "sensitivity to addition of BSO", "setting": "[2]", "value": "insensitive"},
      {"measurement": "p27 levels", "setting": "[3]; 0-0.5 mM, day 10", "value": "depresses p27 levels proportional to its concentration"},
      {"measurement": "titre of virions in the supernatant", "setting": "[3]; 0.3 and 0.5 mM IABP", "value": "reduced the titre of virions"},
      {"measurement": "inhibition at 160 µM", "setting": "L 1210 cells; IABP 160 μM", "value": "~55", "unit": "%"},
      {"measurement": "inhibition at 320 µM", "setting": "L 1210 cells; IABP 320 μM", "value": "~80", "unit": "%"},
      {"measurement": "inhibition at 480 µM", "setting": "L 1210 cells; IABP 480 μM", "value": "~93", "unit": "%"},
      {"measurement": "infectious cycle of HIV", "setting": "HIV", "value": "blocked the infectious cycle of HIV"}
    ]}
  ]
}
